Source: patent publication US8906826B2, “Herbicidal compositions comprising 4-amino-3-chloro-5-fluoro-6-(4-chloro-2-fluoro-3-methoxyphenyl) pyridine-2-carboxylic acid or a derivative thereof and imidazolinones” (Dow AgroSciences, LLC, priority 2012, dated 2014)
Several values for one entry are separate records, joined by “and”; a condition that tells them apart may be missing. Identical values can stand only once.

Experiments:
DIGSA = test: Postemergence foliar-applied, direct seeded rice weeds (Example I); assay type: in vivo, Digitaria sanguinalis (L.) Scop.
Text: (§1) Seeds or nutlets of the desired test plant species were planted in a soil matrix prepared by mixing a loam or sandy loam soil (e.g., 28.6 percent silt, 18.8 percent clay, and 52.6 percent sand, with a pH of about 5.8 and an organic matter content of about 1.8 percent) and calcareous grit in an 80 to 20 ratio. The soil matrix was contained in plastic pots with a volume of 1 quart and a surface area of 83.6 cm^2. When required to ensure good germination and healthy plants, a fungicide treatment and/or other chemical or physical treatment was applied. The plants were grown for 8-22 days in a greenhouse with an approximate 14 h photoperiod which was maintained at about 29° C. during the day and 26° C. during the night. Nutrients (Peters Excel® 15-5-15 5-Ca 2-Mg and iron chelate) were applied in the irrigation solution as needed and water was added on a regular basis. Supplemental lighting was provided with overhead metal halide 1000-Watt lamps as necessary. The plants were employed for testing when they reached the first through fourth true leaf stage.
(§2) Treatments consisted of the acid or esters of 4-amino-3-chloro-5-fluoro-6-(4-chloro-2-fluoro-3-methoxy-phenyl)pyridine-2-carboxylic acid (Compound A), each formulated as an SC (suspension concentrate), and various herbicidal components alone and in combination. Forms of compound A were applied on an acid equivalent basis.
(§3) Other herbicidal components were applied on an acid equivalent basis and include acetolactate synthase (ALS)-inhibiting herbicides (imidazolinone chemical class) imazethapyr ammonium salt formulated as Newpath®, imazamox ammonium salt formulated as Beyond®, imazapic ammonium salt formulated as Plateau®, imazapyr isopropylamine salt formulated as Arsenal®, imazamethabenz-methyl (technical material) and imazaquin isopropylamine salt formulated as Scepter®/Imagine®.
(§4) Treatment requirements were calculated based upon the rates being tested, the concentration of active ingredient or acid equivalent in the formulation, and a 12 mL application volume at a rate of 187 L/ha.
For treatments comprised of formulated compounds, measured amounts of compounds were placed individually in 25 mL glass vials and diluted in a volume of 1.25% (v/v) Agri-Dex® crop oil concentrated to obtain 12× stock solutions. […]
(§5) For treatments comprised of formulated and technical compounds, weighed amounts of the technical materials were placed individually in 25 mL glass vials and dissolved in a volume of 97:3 v/v acetone/DMSO to obtain 12× stock solutions, and measured amounts of the formulated compounds were placed individually in 25 mL glass vials and diluted in a volume of 1.5% (v/v) crop oil concentrate or water to obtain 12× stock solutions. […]

CYPIR = test: as above; assay type: in vivo, Cyperus iria L.
Text: as §1, §2, §3, §4
For treatments comprised of formulated compounds, measured amounts of compounds were placed individually in 25 mL glass vials and diluted in a volume of 1.25% (v/v) Agri-Dex® crop oil concentrated to obtain 12× stock solutions. […] Application solutions were prepared by adding an appropriate amount of each stock solution (e.g., 1 mL) and diluted to the appropriate final concentrations with the addition of 10 mL of an aqueous mixture of 1.25% (v/v) crop oil concentrate so that the final spray solutions contained 1.25+/−0.05% (v/v) crop oil concentrate.
For treatments comprised of technical compounds, weighed amounts can be placed individually in 25 mL glass vials and dissolved in a volume of 97:3 v/v acetone/DMSO to obtain 12× stock solutions. […] Application solutions can be prepared by adding an appropriate amount of each stock solution (e.g., 1 mL) and diluted to the appropriate final concentrations with the addition of 10 mL of an aqueous mixture of 1.5% (v/v) crop oil concentrate so that the final spray solutions contain 1.25% (v/v) crop oil concentrate. When technical materials are used, the concentrated stock solutions can be added to the spray solutions so that the final acetone and DMSO concentrations of the application solutions are 16.2% and 0.5%, respectively.
as §5

ECHCG = test: In-water applied, transplanted paddy rice weeds (Example II); assay type: in vivo, Echinochloa crusgalli (L.) Beauv.
Method: Weed seeds or nutlets of the desired test plant species were planted in puddled soil (mud) prepared by mixing a shredded, non-sterilized mineral soil (50.5 percent silt, 25.5 percent clay, and 24 percent sand, with a pH of about 7.6 and an organic matter content of about 2.9 percent) and water at a 1:1 volumetric ratio. The prepared mud was dispensed in 365 mL aliquots into 16-ounce (oz.) non-perforated plastic pots with a surface area of 86.59 square centimeters (cm^2) leaving a headspace of 3 centimeters (cm) in each pot. Mud was allowed to dry overnight prior to planting or transplanting. Rice seeds were planted in Sun Gro MetroMix® 306 planting mixture, which typically has a pH of about 6.0 to about 6.8 and an organic matter content of about 30 percent, in plastic plug trays. Seedlings at the second or third leaf stage of growth were transplanted into 860 mL of mud contained in 32-oz. non-perforated plastic pots with a surface area of 86.59 cm^2 4 days prior to herbicide application. The paddy was created by filling the headspace of the pots with 2.5 to 3 cm of water. When required to ensure good germination and healthy plants, a fungicide treatment and/or other chemical or physical treatment was applied. The plants were grown for 4-22 days in a greenhouse with an approximate 14 h photoperiod which was maintained at about 29° C. during the day and about 26° C. during the night. Nutrients were added as Osmocote® (19:6:12, N:P:K+minor nutrients) at 2 g per 16-oz. pot and 4 g per 32-oz. pot. Water was added on a regular basis to maintain the paddy flood, and supplemental lighting was provided with overhead metal halide 1000-Watt lamps as necessary. The plants were employed for testing when they reached the first through fourth true leaf stage.
Treatments consisted of the acid or esters of 4-amino-3-chloro-5-fluoro-6-(4-chloro-2-fluoro-3-methoxy-phenyl)pyridine-2-carboxylic acid (compound A) each formulated as an SC and various herbicidal components alone and in combination. Forms of compound A were applied on an acid equivalent basis.
as §3, with “included the” for “include”, “(ALS)-inhibiting imidazolinone” for “(ALS)-inhibiting”, “herbicides” for “herbicides (imidazolinone chemical class)”, “material),” for “material)”, “Scepter®.” for “Scepter®/Imagine®.”
Treatment requirements for each compound or herbicidal component were calculated based upon the rates being tested, the concentration of active ingredient or acid equivalent in the formulation, an application volume of 2 mL per component per pot, and an application area of 86.59 cm^2 per pot.
For formulated compounds, a measured amount was placed in an individual 100 or 200 mL glass vial and was dissolved in a volume of 1.25% (v/v) Agri-Dex® crop oil concentrate to obtain application solutions.
For technical grade compounds, a weighed amount was placed in an individual 100 to 200 mL glass vial and was dissolved in a volume of acetone to obtain concentrated stock solutions. […] The concentrated stock solutions obtained were diluted with an equivalent volume of an aqueous mixture containing 2.5% (v/v) crop oil concentrate so that the final application solutions contained 1.25% (v/v) crop oil concentrate.
Applications were made by injecting with a pipetter appropriate amounts of the application solutions, individually and sequentially, into the aqueous layer of the paddy. Control plants were treated in the same manner with the solvent blank. Applications were made so that all treated plant material received the same concentrations of acetone and crop oil concentrate.
The treated plants and control plants were placed in a greenhouse as described above and water was added as needed to maintain a paddy flood. […]

Structure (SMILES): COCc1cnc(C2=NC(C)(C(C)C)C(=O)N2)c(C(=O)O)c1.N (racemic) [Imazamox ammonium, ammonium (±)-2-[4,5-dihydro-4-methyl-4-(1-methylethyl)-5-oxo-1H-imidazol-2-yl]-5-(methoxymethyl)-3-pyridinecarboxylate]
- Visual Weed Control (%) - 20 DAA DIGSA Obs (DIGSA; Imazamox ammonium 44.8 gae/ha): 60%
- Visual Weed Control (%) - 25 DAA CYPIR Obs (CYPIR; Imazamox ammonium 11.2 gae/ha): 20%
- Visual Weed Control (%) - 25 DAA CYPIR Obs (CYPIR; Imazamox ammonium 22.4 gae/ha): 70%
- Visual Weed Control (%) - 25 DAA ECHCG Obs (ECHCG; Imazamox ammonium 5.6 gae/ha): 0%
- Visual Weed Control (%) - 25 DAA ECHCG Obs (ECHCG; Imazamox ammonium 22.4 gae/ha): 25%

Structure (SMILES): CCc1cnc(C2=NC(C)(C(C)C)C(=O)N2)c(C(=O)O)c1.N (racemic) [Imazethapyr ammonium, ammonium (±)-2-[4,5-dihydro-4-methyl-4-(1-methylethyl)-5-oxo-1H-imidazol-2-yl]-5-ethyl-3-pyridinecarboxylate]
- Visual Weed Control (%) - 20 DAA DIGSA Obs (DIGSA; Imazethapyr ammonium 70 gae/ha): 80%
- Visual Weed Control (%) - 25 DAA ECHCG Obs (ECHCG; Imazethapyr ammonium 8.75 gae/ha): 0%
- Visual Weed Control (%) - 25 DAA ECHCG Obs (ECHCG; Imazethapyr ammonium 17.5 gae/ha): 0%
- Visual Weed Control (%) - 25 DAA ECHCG Obs (ECHCG; Imazethapyr ammonium 35 gae/ha): 50%

Structure (SMILES): Cc1cnc(C2=NC(C)(C(C)C)C(=O)N2)c(C(=O)O)c1.N (racemic) [Imazapic ammonium, ammonium (±)-2-[4,5-dihydro-4-methyl-4-(1-methylethyl)-5-oxo-1H-imidazol-2-yl]-5-methyl-3-pyridinecarboxylic acid]
- Visual Weed Control (%) - 22 DAA CYPIR Obs (CYPIR; Imazapic ammonium 7 gae/ha): 20%
- Visual Weed Control (%) - 25 DAA ECHCG Obs (ECHCG; Imazapic ammonium 8.75 gae/ha): 20%
- Visual Weed Control (%) - 25 DAA ECHCG Obs (ECHCG; Imazapic ammonium 17.5 gae/ha): 20%

Structure (SMILES): COc1c(Cl)ccc(-c2nc(C(=O)O)c(Cl)c(N)c2F)c1F [Compound A Acid, 4-amino-3-chloro-6-(4-chloro-2-fluoro-3-methoxyphenyl)-5-fluoropyridine-2-carboxylic acid]
- Visual Weed Control (%) - 20 DAA DIGSA Obs (DIGSA; Compound A Acid 19.3 gae/ha): 13%
- Visual Weed Control (%) - 25 DAA ECHCG Obs (ECHCG; Compound A Acid 8.75 gae/ha): 0%
- Visual Weed Control (%) - 25 DAA ECHCG Obs (ECHCG; Compound A Acid 17.5 gae/ha): 0%
- Visual Weed Control (%) - 25 DAA ECHCG Obs (ECHCG; Compound A Acid 35 gae/ha): 0%

Structure (SMILES): COc1c(Cl)ccc(-c2nc(C(=O)OCc3ccccc3)c(Cl)c(N)c2F)c1F [Compound A Benzyl Ester, benzyl ester of 4-amino-3-chloro-5-fluoro-6-(4-chloro-2-fluoro-3-methoxy-phenyl)pyridine-2-carboxylic acid]
- Visual Weed Control (%) - 22 DAA CYPIR Obs (CYPIR; Compound A Benzyl Ester 8 gae/ha): 20% and 30%
- Visual Weed Control (%) - 25 DAA CYPIR Obs (CYPIR; Compound A Benzyl Ester 8.75 gae/ha): 75%
- Visual Weed Control (%) - 22 DAA CYPIR Obs (CYPIR; Compound A Benzyl Ester 16 gae/ha): 85%
- Visual Weed Control (%) - 25 DAA ECHCG Obs (ECHCG; Compound A Benzyl Ester 17.5 gae/ha): 10%
- Visual Weed Control (%) - 25 DAA ECHCG Obs (ECHCG; Compound A Benzyl Ester 35 gae/ha): 45%
